From PubChem BioAssay (NCI)
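Assay format: 96-well plates, 48-hour exposure. Abbreviation: GI50, concentration required for 50% inhibition of growth. Definition used: TGI = concentration required for complete inhibition of growth.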

Key:
Assay in all cases: DTP human tumour cell line panel, 48 h
LOX IMVI melanoma = test system: LOX IMVI melanoma
NCI-H23 lung = test system: NCI-H23 lung
OVCAR-3 ovarian = test system: OVCAR-3 ovarian
IGROV1 ovarian = test system: IGROV1 ovarian
SK-MEL-2 melanoma = test system: SK-MEL-2 melanoma
SNB-19 CNS = test system: SNB-19 CNS
RXF 393 renal = test system: RXF 393 renal
SNB-75 CNS = test system: SNB-75 CNS
HCC-2998 colon = test system: HCC-2998 colon
PC-3 prostate = test system: PC-3 prostate

Row | SMILES | TGI (LOX IMVI melanoma) | TGI (NCI-H23 lung) | TGI (OVCAR-3 ovarian) | TGI (IGROV1 ovarian) | TGI (SK-MEL-2 melanoma) | TGI (SNB-19 CNS) | TGI (RXF 393 renal) | TGI (SNB-75 CNS) | TGI (HCC-2998 colon) | TGI (PC-3 prostate) | GI50 (PC-3 prostate) | GI50 (NCI-H23 lung) | GI50 (OVCAR-3 ovarian) | GI50 (IGROV1 ovarian) | GI50 (HCC-2998 colon) | GI50 (SK-MEL-2 melanoma) | GI50 (RXF 393 renal) | GI50 (SNB-75 CNS)
1 | Cc1cc2occ(-c3ccc(Cl)cc3)c2c(=O)o1 | > 100 µM | > 100 µM | > 100 µM | > 100 µM | > 100 µM | > 100 µM | > 100 µM | > 100 µM |  |  |  |  |  |  |  |  |  | 
2 | CC(=O)NC1=C(NCC(C)C)C(=O)c2ccccc2C1=O | 30.1 µM | 59.7 µM | 32.4 µM | > 100 µM | 67.8 µM | > 100 µM | 25.4 µM | 31.1 µM | > 100 µM |  |  |  |  |  |  |  |  | 
3 | CC(=O)Nc1ccc(C(=O)N2N=C(C)/C(=C/c3ccc(O)cc3)C2=O)cc1 | > 100 µM | > 100 µM | > 100 µM |  | > 100 µM | > 100 µM |  | > 100 µM | > 100 µM |  |  |  |  |  |  |  |  | 
4 | CCOC(=O)c1nc2ccccc2nc1NCc1ccc(Cl)cc1Cl | > 100 µM | > 100 µM | > 100 µM | > 100 µM | > 100 µM | > 100 µM | > 100 µM | > 100 µM |  | > 100 µM |  |  |  |  |  |  |  | 
5 | CC(c1ccccc1)N1CC(C)(c2ccccc2)N(O)C(c2ccccc2)C1C (centres undefined) | 30.1 µM | 56.8 µM | 40.8 µM | > 100 µM | 28 µM | > 100 µM | 36.8 µM | 55.2 µM | 36.9 µM |  |  |  |  |  |  |  |  | 
6 | C=C1CC(Cn2cc(Br)c(=O)[nH]c2=O)(c2ccc(-c3ccccc3)cc2)OC1=O (centres undefined) | 2.61 µM | 3.4 µM | 2.98 µM | 2.96 µM | 3.26 µM | 26.8 µM |  | 17.6 µM | 3.21 µM | 3.31 µM |  |  |  |  |  |  |  | 
7 | COc1ccc(C2=C(OC(=O)N(C)C)c3cccn3-c3cc(Cl)ccc3S2)cc1 | > 10 µM | > 10 µM |  | > 10 µM |  |  | > 10 µM | > 10 µM | > 10 µM | > 10 µM |  |  |  |  |  |  |  | 
8 | CCCCCCOc1ccc(C(=N)N(CCCC)CCCC)c2ccccc12 |  | 2.8 µM | 2.98 µM | 2.86 µM | 3.23 µM |  | 2.74 µM | 2.46 µM | 3.03 µM | 3.05 µM | 1.53 µM | 1.45 µM | 1.49 µM | 1.34 µM | 1.59 µM | 1.72 µM | 1.28 µM | 1.19 µM
9 | c1ccc([P+](c2ccccc2)(c2ccccc2)c2ccc([P+](c3ccccc3)(c3ccccc3)c3ccccc3)cc2)cc1 | > 100 µM | > 100 µM | > 100 µM | > 100 µM | > 100 µM | > 100 µM | > 100 µM | > 100 µM |  | > 100 µM |  |  |  |  |  |  |  | 
10 | C/C(=C\Cc1cc(O)ccc1O)CCc1c(C)cc(O)c(C=O)c1C |  | 70.8 µM | 53.1 µM | 50.5 µM | 58.6 µM | > 100 µM | 37.1 µM | 77.4 µM | > 100 µM |  |  |  |  |  |  |  |  | 
11 | COc1cccc(CN(C(=O)/C=C\Sc2ccccc2)C(C)(C)C)c1 | > 100 µM | > 100 µM | > 100 µM | > 100 µM | > 100 µM | > 100 µM |  |  | > 100 µM | > 100 µM |  |  |  |  |  |  |  | 
